O=[N+]([O-])c1cn[nH]c1[N+](=O)[O-]
solubility (mole fraction)
Settings	283.15 K	288.15 K	293.15 K	298.15 K	303.15 K	308.15 K	313.15 K	318.15 K	323.15 K
in 2-butanone	0.429	0.45	0.476	0.498	0.525	0.554	0.578	0.602	0.645
in THF	0.51	0.525	0.598	0.631	0.684	0.735	0.792	0.837	0.886
in acetonitrile	0.0745	0.0772	0.085	0.0912	0.0968	0.105	0.11	0.12	0.133
in chloroform	0.00071	0.00094	0.00113	0.00152	0.00211	0.00277	0.0035	0.00476	0.00693
in epichlorohydrin	0.0361	0.0395	0.0422	0.0467	0.0498	0.0536	0.0582	0.0634	0.0715
in ethyl acetate	0.0671	0.0791	0.0913	0.103	0.125	0.146	0.163	0.193	0.224
in isobutanol	0.234	0.264	0.265	0.329	0.355	0.391	0.438	0.486	0.539
in isopentanol	0.228	0.258	0.29	0.315	0.351	0.376	0.408	0.46	0.508
in n-pentanol	0.266	0.315	0.365	0.412	0.465	0.513	0.552	0.631	0.679
in n-propanol	0.317	0.361	0.412	0.468	0.516	0.567	0.612	0.7	0.803
in water	0.002	0.0032	0.00414	0.00529	0.00738	0.00924	0.0111	0.0136	0.0169

— BigSolDB 2.1
